Laboratory results published in patent US6955891B2 (priority 2002, dated 2005).

How the values were obtained:
Lethal factor = Lethal factor (Bacillus anthracis, UniProt P15917); conditions: cited from earlier work
[1] = molecular target: Bacillus anthracis lethal factor (Bacillus anthracis, UniProt P15917)
Bacillus anthracis lethal factor, sequence (P15917 34-809 limits assumed): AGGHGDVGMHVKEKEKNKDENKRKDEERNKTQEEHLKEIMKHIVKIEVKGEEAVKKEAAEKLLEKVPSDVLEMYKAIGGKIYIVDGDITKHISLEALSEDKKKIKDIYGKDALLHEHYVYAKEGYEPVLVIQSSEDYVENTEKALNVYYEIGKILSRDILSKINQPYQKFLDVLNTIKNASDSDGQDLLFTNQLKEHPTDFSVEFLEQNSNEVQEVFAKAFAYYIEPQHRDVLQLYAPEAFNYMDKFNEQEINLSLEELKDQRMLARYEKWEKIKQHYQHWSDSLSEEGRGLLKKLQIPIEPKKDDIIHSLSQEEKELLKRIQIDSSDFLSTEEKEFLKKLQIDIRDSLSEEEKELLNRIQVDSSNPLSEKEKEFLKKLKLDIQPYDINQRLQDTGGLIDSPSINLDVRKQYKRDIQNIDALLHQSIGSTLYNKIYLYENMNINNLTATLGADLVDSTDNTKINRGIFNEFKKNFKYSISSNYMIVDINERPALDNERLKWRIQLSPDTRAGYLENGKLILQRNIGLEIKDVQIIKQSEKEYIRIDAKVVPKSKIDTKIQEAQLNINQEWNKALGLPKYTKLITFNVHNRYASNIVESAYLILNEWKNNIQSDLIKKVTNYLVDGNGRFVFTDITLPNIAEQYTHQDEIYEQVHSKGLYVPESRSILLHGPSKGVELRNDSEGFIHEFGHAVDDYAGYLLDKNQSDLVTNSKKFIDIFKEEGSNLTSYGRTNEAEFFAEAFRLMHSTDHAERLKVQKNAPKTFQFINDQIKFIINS

Lethal factor, sequence (P15917 34-809 limits assumed): as above

Row | Compound | effect on in vitro cleavage of synthetic peptides by lethal factor (Lethal factor) | signal/background (S/B) at 100% cleavage [1]
1 | c1cnc2c(c1)ccc1cccnc12 [1,10-phenanthroline] | inhibited | –
2 | (Cou)NleKKKKVLP IQLNAATDK(Q-35)GG-NH2 [(Cou)Consensus(K(QSY-35)GG)-NH2] | – | largest S/B
